PMC12123601, “Light-Induced, Lysine-Targeting Irreversible Covalent Inhibition of the Human Oxygen Sensing Hydroxylase Factor Inhibiting HIF (FIH)” (Journal of the American Chemical Society, 2025)

What was measured:
[1] = test system: 3T3-L1-derived adipocytes; assay: Lipid homeostasis in 3T3-L1-derived adipocytes (TG level, Oil Red O staining); type: cell-based
Procedure: 5 NBA-ZG-2991 sustainably engages with FIH and regulates the expression of FIH-dependent HIF target gene EGLN3 in Hep3B cells. (A) The CETSA assay was carried out with Hep3B cells grown in the presence of NBA-ZG-2291 (50 μM) for 12–48 h after 30 min of light activation (365 nm, 16 W). The intensity of the bands for grayscale analysis was referenced to the starting temperature (37 °C). α-Actinin was the sample loading control. n = 2; mean ± SD. […] (E) Correlation heatmap of the NBA-ZG-2291-treated group and the siFIH group by RNA-sequencing analysis. […] The relative fold change with respect to DMSO treated sample is shown (with normalization to HPRT gene levels). Mean ± SEM; n = 3. (G) TG level of NBA-ZG-2291-treated 3T3-L1-derived adipocytes. Mean ± SEM; n = 3. (H) Representative Oil Red O-stained images of the control, ZG-2291-treated, and NBA-ZG-2291-treated 3T3-L1-derived adipocytes. Scale Bar, 30 μm. P values were analyzed by two-way ANOVA comparing with the vehicle/control group (*, P < 0.05; **, P < 0.01; ***, P < 0.001, ****, P < 0.0001). See Methods (Quantitative PCR Analysis of Gene Expression) for assay details. […]

[2] = molecular target: FIH (Homo sapiens, UniProt Q9NWT6); assay: Intact protein mass analysis of FIH treated with compound; type: binding; settings: FIH 5 μM, compound 50 μM
Sequence of FIH (Q9NWT6 whole entry): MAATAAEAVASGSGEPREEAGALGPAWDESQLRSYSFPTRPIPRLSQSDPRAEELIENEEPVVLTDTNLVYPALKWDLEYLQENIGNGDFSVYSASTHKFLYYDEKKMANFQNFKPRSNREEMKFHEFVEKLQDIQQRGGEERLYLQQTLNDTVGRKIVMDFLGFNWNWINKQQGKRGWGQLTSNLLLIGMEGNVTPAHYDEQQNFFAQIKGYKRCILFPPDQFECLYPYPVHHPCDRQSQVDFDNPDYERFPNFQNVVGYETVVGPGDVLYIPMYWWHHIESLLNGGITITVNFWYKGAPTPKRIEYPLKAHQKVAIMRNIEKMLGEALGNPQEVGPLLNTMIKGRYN
Procedure: 3 (A) Intact protein mass analysis of FIH (5 μM) and FIH (5 μM) treated with NBA-ZG-2291 (50 μM) without irradiation. (B) Crystal structure view of FIH in complex with NBA-ZG-2291 without irradiation. (C) Superimposition of the crystal structure FIH in complex with NBA-ZG-2291 (green) (PDB ID: 9I4H) and that in complex with ZG-2291 (pink) (PDB ID: 8II0 ). (D) Intact protein mass analysis of FIH (5 μM) and FIH (5 μM) treated with NBA-ZG-2291 (50 μM) followed by 30 min of irradiation (365 nm, 16 W). (E) Predicted covalent binding mode of NBA-ZG-2291 with FIH.
Subsequently, we verified the covalent reaction of NBA-ZG-2291 and FIH with irradiation in solution using, intact protein mass analyzes.
3.4 Intact protein mass spectrometry
Purified FIH (5 μM final) was incubated with Lys-1 at 50 μM in 50 mM Tris pH 7.5, 50 μM MnCl2 in a total volume of 100 μL.
All experiments were incubated at 25 ℃ for 1 h, then with or without irradiation at 365 nm for 30 min. […]
The process of customizing non-standard residues (NBA-ZG-2291 modified Lys106) in the amber14sb force field involved the following steps: First, the molecular structure of NBA-ZG-2291 was obtained and its topology was generated. […] The molecular charges were then calculated using the RESP method, and the topology file was updated with these charge values. […]

O=C(O)CNC(=O)c1ncc(-c2cc(-c3ccc(CO)c([N+](=O)[O-])c3)no2)cc1O [NBA-ZG-2291]
Cellular triglyceride (TG) levels [1]: significantly improved cellular triglyceride levels | Lipid droplet accumulation (Oil Red O staining) ([1]; compared with control cells): reduced lipid droplet accumulation | Covalent adduct with FIH by intact protein MS ([2]; 30 min light activation (365 nm, 16 W)): a new peak with the anticipated mass shift corresponding to covalent reaction was detected | Covalent adduct with FIH by intact protein MS ([2]; absence of irradiation): failed to detect the covalent adducts
